Results reported in PubChem BioAssay AID488890 (Southern Research Specialized Biocontainment Screening …, 2010).
Results filed as inconclusive are left out. Active and inactive are the calls of the source. The rule behind the calls is not given here.

test system: Mycobacterium tuberculosis non-replicating, growth inhibition; experiment: growth inhibition of non-replicating M. tuberculosis (AID 488890)

SMILES	IC50
Cc1nnc(-c2ccccc2)c(=O)n1/N=C/c1c(O)ccc2ccccc12	1.31 µM
Cc1[nH]n2c(=O)c3c(nc2c1-c1ccc(Cl)cc1)CCC3	3.4 µM
CC(C)OC(=O)CCCCCN1C(=O)CSC1=S	1.94 µM
CCOC(=O)c1ccc(-c2ccc(C(=O)Nc3cccnc3)o2)cc1	0.84 µM
CC(C)(C)c1cc(CN2CCN(CCO)CC2)cc(C(C)(C)C)c1O	3.78 µM
O=C(N/N=C/c1cc(Br)ccc1O)c1ccccc1Cl	0.48 µM
Cc1cc(C)n2[nH]c(=O)c(N=Nc3cccc(Cl)c3)c2n1	4.13 µM
CCOC(=O)c1ccc(NC(=O)CCSCCc2ccccn2)cc1	23.4 µM (inactive)
CCOC(=O)Nc1ccc2c(c1)N(C(=O)CCN1CCOCC1)c1ccccc1S2=O (stereo not drawn)	3.62 µM
O=C(N/N=C/c1ccc[nH]1)c1ccncc1	2.22 µM
CC(NCc1ccc(OCc2ccc(Cl)cc2)cc1)C(O)c1ccccc1 (stereo not drawn)	6.84 µM
CS(=O)(=O)Nc1cccc2cccnc12	21.4 µM (inactive)
Cc1ccc(N2C(=O)CC(Sc3nccc(C)n3)C2=O)cc1 (stereo not drawn)	29.6 µM (inactive)
COc1ccc(-c2nc3ccc(C)cc3c(=O)o2)cc1OC	2.95 µM
CC(C)N1CCc2c(sc(NC(=O)CCS(=O)(=O)c3ccccc3)c2C#N)C1	39.6 µM (inactive)
CSc1ccc(N=Nc2c(C)[nH]n(C)c2=O)cc1	20.6 µM (inactive)
O=C(CCN1C(=O)/C(=C/c2ccccc2Cl)SC1=S)N1CCCC1	7.03 µM
Cc1ccc(Sc2ncccc2N)cc1	41.3 µM (inactive)
FC(F)(F)c1ccc(-c2nnc(-c3cccnc3)o2)cc1	6.48 µM
Cc1cc(Br)ccc1OCCCCN1CCC(C)CC1	9.63 µM
Cc1ccc(NC(=O)CCSc2nnc(Cc3ccccc3)o2)cc1	2.05 µM
O=S1(=O)C=C(Sc2nnc(-c3ccccc3)o2)c2ccccc21	< 0.1 µM
CCOc1ccc(-c2nnc(NC(=O)CCCOc3cccc(C)c3)o2)cc1	15 µM (inactive)
COc1ccc(NC(=O)Nc2ccc(O)c3ccccc23)cc1	3.7 µM

SMILES	IC50
Cc1ccc(N=N/C(=C\O)C(=O)c2ccncc2)cc1	10.1 µM (inactive)
CCC(C)(C)NC(=O)c1ccc(Br)o1	18.6 µM (inactive)
O=[N+]([O-])c1ccc(N2CCN(Cc3ccc([N+](=O)[O-])o3)CC2)cc1	< 0.1 µM
O=C(Nc1cccc(Cl)c1)Nc1nnc(-c2ccncc2)s1	2.69 µM
COc1cc(CNCCO)cc(Cl)c1OCc1ccc(Cl)cc1Cl	6.67 µM
CCCCCCCCCCn1cc(C(C)=O)c(=O)[nH]c1=O	4.74 µM
Cn1c(NC(=O)c2ccccc2)nc2ccccc21	2.7 µM
O=[N+]([O-])c1ccc(N2CCCCCC2)c2nonc12	21.7 µM (inactive)
COc1ccc(/C=N/Nc2cc(C)nc3ccccc23)cc1	8.43 µM
Cn1c(/C=C/c2ccc([N+](=O)[O-])o2)nc2ccccc2c1=O	< 0.1 µM
C/C(=N\Nc1cccc2cccnc12)c1ccccn1	32.7 µM (inactive)
Clc1cccc(/C=N\Nc2nccs2)c1	12 µM (inactive)
O=C(NCCCN1CCOCC1)c1ccc(CSc2ccc(Cl)cc2)cc1	29 µM (inactive)
Clc1ccc(N=c2ssnc2Cl)nc1	3.45 µM
Cc1ccc(/C=N/NC(=O)c2ccncc2)o1	2.07 µM
Cc1cc(CC(C)C)n(-c2nc3ccccc3c(=O)n2OCC(N)=O)n1	16.1 µM (inactive)
CSc1nc2ccc(NC(=O)C3CC(=O)N(Cc4ccccc4)C3)cc2s1 (stereo not drawn)	13.6 µM (inactive)
O=C(c1nnc(-c2ccc(Cl)cc2)o1)C1CCCC1	11.4 µM (inactive)
Cc1ccccc1-n1nnc2c(=O)oc3ccccc3c21	0.44 µM
CCOC(=O)c1nc2sc3c(c2c(=O)[nH]1)CCC(C)C3 (stereo not drawn)	< 0.1 µM
Cc1ccc(-n2cc(CNCCn3nc(C)cc3C)c(-c3ccc(F)cc3)n2)cc1	6.05 µM
Cc1ccc(CC(=O)Nc2ccc(Cl)cn2)cc1	1.06 µM
O=C(CC(=O)c1ccccc1O)c1cccc(F)c1	8.89 µM
Cc1[nH]n(-c2cccc(Cl)c2)c(=O)c1/C=N/n1c(C)nc2ccccc2c1=O	19.5 µM (inactive)

SMILES	IC50
CC(=O)Nc1nc2ccccc2n1CCOc1ccccc1Cl	5.37 µM
O=C(CCS(=O)(=O)Cc1ccccc1)Nc1ncc([N+](=O)[O-])s1	1.97 µM
COC(=O)COc1ccc2c(=O)c(Oc3ccccc3)c(C)oc2c1	1.7 µM
CCOC(=O)C(=CNNc1cccc(Cl)c1)C(=O)OCC	18.7 µM (inactive)
Cc1ccc(Oc2c(C(N)=O)cc([N+](=O)[O-])cc2[N+](=O)[O-])cc1	2.2 µM
CCOc1cc(CNCCO)cc(Br)c1OCc1ccccc1Cl	6.17 µM
CCC1CCC(c2nnc(-c3ccc([N+](=O)[O-])cc3)o2)CC1 (stereo not drawn)	< 0.1 µM
Cc1ccc(-c2cc(C(F)(F)F)n3nc(C(=O)NCCCn4ccnc4)cc3n2)cc1C	14.1 µM (inactive)
CCOC(=O)COc1ccc(/C=C2\NC(=S)N(CC)C2=O)cc1	7.01 µM
Cc1cc(NCc2ccccn2)n2nc(C)c(-c3ccccc3)c2n1	1.82 µM
O=C(NCc1ccccc1)c1cc2ccccc2oc1=O	43.8 µM (inactive)
O=C1CCC/C(=N/Nc2ccc(Cl)cc2)C1	3.72 µM
CCOC(=O)Cn1cc(C#N)c2cccc(CC)c21	9.18 µM
COc1cc(CNCCNC(=O)c2nonc2N)ccc1OCc1ccc(Cl)cc1	12.2 µM (inactive)
O=C1c2cc([N+](=O)[O-])cc3cc([N+](=O)[O-])cc(c23)C(=O)N1c1ccccn1	3.46 µM
O=C(NC(=S)N1CCc2ccccc21)c1ccccc1	11.6 µM (inactive)
O=C(NCCC1=CCCCC1)c1ccc(F)cc1	1.36 µM
CN(C)CCCNc1nc2sc3c(c2c(=O)n1CCc1ccccc1)CCCCC3	12 µM (inactive)
COc1cc2ccccc2cc1C(=O)Nc1sc2c(c1C(N)=O)CCN(C(C)C)C2	19 µM (inactive)
CN(C)CCCNc1cc(C(C)(C)C)nc2c(-c3ccccc3)cnn12	18.6 µM (inactive)
Cc1cccc(NC(=O)COC(=O)CCc2c[nH]c3ccccc23)c1C	6.12 µM
CCNC(=O)NC(=O)C(C)OC(=O)CCCSc1nc2ccccc2s1 (stereo not drawn)	4.68 µM
CC(=O)c1ccc(OCC(=O)Nc2ccc3c(c2)CCC3)cc1	12.4 µM (inactive)
Cc1occc1-c1nnc(-c2cc([N+](=O)[O-])cc([N+](=O)[O-])c2)o1	1.56 µM

SMILES	IC50
Cc1ccccc1C(=O)Nc1nnc(-c2ccco2)o1	4.97 µM
CC(C)=CCN1CCN(CCC2=C(C)CCCC2(C)C)CC1CCO (stereo not drawn)	7.56 µM
O=C(COc1ccccc1)NC1CCCCC1	0.61 µM
COc1cccc(NC(=O)COC(=O)Cc2ccc(Br)cc2)c1	12.7 µM (inactive)
CC(C)(C)NC(=O)COC(=O)c1snc(C(=O)NC2CCCCC2)c1N	1.64 µM
Cc1n[nH]c(=S)n1/N=C/c1ccc(OCc2ccc(Cl)cc2Cl)cc1	37.5 µM (inactive)
Nc1scc(-c2ccncc2)c1Cl	14 µM (inactive)
O=C1NC(=O)C(=Cc2ccc(Oc3ccc([N+](=O)[O-])cc3)cc2)C(=O)N1	16.5 µM (inactive)
CCOC(=O)c1nn(-c2ccccc2)c2nc(Nc3ccccc3)cc(=O)n12	4.74 µM
Cc1ccc(/C=N/NC(=O)c2ccncc2)s1	1.43 µM
O=C1CCCC(O)=C1C=Nc1ccc2c(c1)oc1ccccc12	8.18 µM
Cc1ccc(OC(=O)c2ccc(Br)o2)cc1	13.6 µM (inactive)
O=C(Nc1nccs1)c1sc2ccccc2c1Cl	14.3 µM (inactive)
CCOC(=O)Cc1csc(NC(=O)COc2ccc3c(c2)CCC3)n1	13.5 µM (inactive)
CC1=NN(c2ccc(C(=O)O)cc2)C(=O)/C1=C\c1ccc(OC(=O)c2cccs2)cc1	7.5 µM
COC(=O)COc1cccc(/C=N/NC(=O)CCSc2ccccc2)c1	9.71 µM
O=C(CCC1CCCCC1)NCc1ccc(F)cc1	5.27 µM
CCN1CSC(=S)N(Cc2ccc(OC)cc2)C1	18.5 µM (inactive)
O=C(N/N=C/c1cccc([N+](=O)[O-])c1O)c1cccs1	2.34 µM
Cc1[nH]n(-c2ccc(Cl)cc2)c(=O)c1N=Nc1cccnc1	1.37 µM
C=CCn1c(O)c(C2=c3ccccc3=NC2=O)c2ccccc21	2.68 µM
Cn1c(CNc2ccccc2O)nc2ccccc21	5.64 µM
CC(/C=C/c1ccco1)=N\NC(=O)c1cccc(Cl)c1	4.86 µM
Brc1ccc(CSc2nnc(-c3ccco3)o2)cc1	0.28 µM

SMILES	IC50
COc1ccc2nc(/N=C(\N)NC(=O)C(C)(C)C)nc(C)c2c1	17.4 µM (inactive)
Fc1ccc(-c2nn(-c3ccccc3)cc2CNCc2ccccc2)cc1	8.72 µM
COc1ccc2cc(C(=O)C3CCCN(Cc4cccc(C)n4)C3)ccc2c1 (stereo not drawn)	8.11 µM
Cc1ccc(N=Nc2c(C)[nH]n(C(N)=S)c2=O)cc1C	0.57 µM
CC(C)[C@@H]1CC[C@@H](C)C[C@H]1OC(=O)C[n+]1cc(-c2ccc(Cl)cc2)n2c1CCCCC2	2.18 µM
CCOC(=O)c1cc(COc2cc(Cl)cc(Cl)c2)on1	0.59 µM
CCC(=O)Nc1ccc(C(=O)NNC(=O)c2cc([N+](=O)[O-])cc([N+](=O)[O-])c2)cc1	12.9 µM (inactive)
CC(C)(C)CC(=O)NC(=S)NCc1ccco1	4.56 µM
O=c1oc2ccccc2c2c1nc(C(F)(F)F)n2-c1ccccc1	2 µM
COc1cccc(NC(=O)c2cnc(SC)nc2)c1	10.4 µM (inactive)
O=C(CCc1ccccc1)NC1C2CC3CC(C2)CC1C3 (stereo not drawn)	4.71 µM
NC(=O)C1CCN(C2CC(=O)NC2=O)CC1 (stereo not drawn)	15.7 µM (inactive)
CCOC(=O)COn1c2c(c3c4no[n+]([O-])c4ccc31)CCCC2	1.13 µM
CCCC(=O)N1CCC(Cc2ccccc2)CC1	3.47 µM
S=C1SCN(Cc2cccnc2)CN1Cc1ccccc1	14.9 µM (inactive)
Cc1ccc(-n2sc3ccccc3c2=O)cc1	14.3 µM (inactive)
O=C(O)CCCCCN1C(=O)/C(=C\c2ccncc2)SC1=S	11.2 µM (inactive)
O=C(COC(=O)c1ccccc1Br)Nc1ccccc1F	14.7 µM (inactive)
CCOC(=O)C(C)Oc1ccc(OCc2ccccc2)cc1 (stereo not drawn)	2.24 µM
COc1n[nH]c(C(=O)Nc2cc(F)ccc2C)c1[N+](=O)[O-]	12.4 µM (inactive)
O=C(Nc1ncc(Cc2ccccc2)s1)C1=NCCN1	9.49 µM
C#CCSc1nnc(-c2cccc3ccccc23)o1	3.46 µM
